Data reported in patent US10058550B2, “Methods of treating heart failure” (priority 2015, dated 2018).

Key:
[1] = test system: heart failure rats; test: Cardiac function with APJ small molecule agonists in the presence of ACE inhibitor captopril in heart failure rats in vivo; parameters: species or system rat; conditions: captopril alone, acute settings
Description: The interaction between […] (ACE2) and Apelin biology is complicated. To investigate the interaction between the Apelin-APJ and ACE signalling pathways, we examined the improvement in cardiac function with APJ small molecule agonists in the presence of ACE inhibitor captopril in heart failure rats in vivo.

[2] = test system: heart failure rat model; test: Cardiac contractility in vivo in heart failure rat model (MI rat model)
Experimental: Male Lewis rats (Charles River, USA) at 2-3 months of age were used for the study. […] APJ agonists were administered dose dependently acutely for a period of 30 min.

[3] = target: human APJ receptor (Homo sapiens (Human), UniProt P35414); test: biochemical; format: biochemical; conditions: read-out: Activity hAPJ SPA EC50 IP
Sequence of human APJ receptor (P35414 whole entry): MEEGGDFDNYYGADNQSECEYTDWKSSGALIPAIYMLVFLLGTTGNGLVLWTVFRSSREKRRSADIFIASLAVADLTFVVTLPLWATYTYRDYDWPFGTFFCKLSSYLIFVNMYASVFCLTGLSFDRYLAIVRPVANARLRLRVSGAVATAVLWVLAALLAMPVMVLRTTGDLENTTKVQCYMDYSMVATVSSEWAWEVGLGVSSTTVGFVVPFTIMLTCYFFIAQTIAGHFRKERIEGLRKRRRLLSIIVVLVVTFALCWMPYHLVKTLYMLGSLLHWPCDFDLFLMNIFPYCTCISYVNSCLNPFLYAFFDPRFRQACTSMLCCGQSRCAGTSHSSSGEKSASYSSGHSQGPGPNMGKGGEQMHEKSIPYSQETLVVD
Procedure, shortened: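 Membranes from CHO cells stably expressing cloned human APJ were incubated with WGA SPA beads in 20 mM HEPES pH 7.5, 5 mM MgCl2, 0.1% BSA, 200 mM NaCl and 3 μM GDP. Reaction started with 0.2 nM [35S]GTPγS ± ligands, 90 min at RT. EC50 obtained by non-linear regression as mean of independent experiments.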

[4] = test system: isolated perfused rat hearts; test: Langendorff isolated perfused rat heart (left ventricular dP/dt); conditions: ex vivo naive Sprague Dawley rat hearts, Langendorff apparatus, as a function of concentration
[5] = test system: isolated perfused rat hearts; test: Load independent inotropic effects, ex vivo assay (isolated perfused rat hearts, Langendorff); conditions: percent change over vehicle
Description: Evidence for Load Independent Inotropic Effects with APJ Agonists using Ex Vivo Assay (Isolated Perfused Rat Hearts)
Naive Sprague Dawley® SD rats (Harlan laboratories (Livermore, Calif. USA)) were anesthetized and hearts were excised followed by cannulation in the Langendorff apparatus (Harvard apparatus, Holliston, Mass. USA) via aorta. […] The pressure of the solution causes the aortic valve to shut and the perfusate is then forced into the ostium and the coronary vessels. This allows the heart to beat for several h. A balloon was inserted into the left ventricle (LV) to measure dP/dtmax (derivative of left ventricular pressure) as an index of cardiac contractility. The APJ agonist was perfused constantly in a dose dependent manner into the heart to examine cardiac contractility.

[6] = target: APJ/AT1R (Homo sapiens (Human), UniProt P30556+P35414); test: IP1 assay (TR-FRET) for allosteric interaction between APJ and AT1R in CHO-K1 APJ/AT1R cells; format: cell-based; conditions: addition of losartan
Sequence of APJ/AT1R (P35414 whole entry, looked up): as the sequence (P35414 whole entry) above
Sequence of APJ/AT1R (P30556 whole entry, looked up): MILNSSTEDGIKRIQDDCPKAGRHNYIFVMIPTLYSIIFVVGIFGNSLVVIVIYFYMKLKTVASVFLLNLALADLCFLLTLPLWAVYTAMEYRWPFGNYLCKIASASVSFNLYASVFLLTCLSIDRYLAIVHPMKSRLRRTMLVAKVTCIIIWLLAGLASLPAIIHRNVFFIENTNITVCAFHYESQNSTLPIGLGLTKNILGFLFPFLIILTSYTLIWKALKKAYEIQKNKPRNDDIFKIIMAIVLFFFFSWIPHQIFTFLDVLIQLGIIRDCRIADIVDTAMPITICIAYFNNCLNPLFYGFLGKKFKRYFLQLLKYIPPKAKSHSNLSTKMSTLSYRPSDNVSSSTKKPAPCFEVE
Experimental: Single and double stable recombinant cell lines were generated for human APJ and the AT1R receptor in CHO K1 cells tagged either with FLAG or hemagglutinin (HA) tag. Briefly, the CHO-K1 APJ/AT1R cells were seeded in culture medium of DMEM-F12 and 10% FBS at a density of 15 k/well in a 96 well plate overnight. The next day, the culture medium was replaced with medium containing no serum for 4 hours. The compound AngII at a range of concentrations (1 pM-10 μM) with or without different concentrations of APJ agonists were diluted in stimulation buffer and added to the cell plate. The plate was sealed and incubated for 1 hour. This was followed by addition of IP-d2 conjugate followed by europium cryptate antibody conjugate into the wells. The plate was sealed, followed with incubation for 2 hours at room temperature. Time-resolved fluorescence resonance energy (TR-FRET) at 620 nm and 665 nm was measured after 2 hours with an Envision reader. The signal ratios and delta F were calculated and the amount of IP1 produced was inversely proportional to the TR-FRET ratio, 665/620 nm.

Structure (SMILES): C[C@H](CS)C(=O)N1CCC[C@H]1C(=O)O [Captopril, captopril]
- contractility [1]: does not show a marked improvement
- ejection fraction [1]: does not show a marked improvement

Structure (SMILES): CCO[C@H](c1ncc(C)cn1)[C@H](C)S(=O)(=O)Nc1nnc(-c2cccnc2)n1-c1c(OC)cccc1OC [Example 109.0, (1R,2S)-N-(4-(2,6-dimethoxyphenyl)-5-(pyridin-3-yl)-4H-1,2,4-triazol-3-yl)-1-ethoxy-1-(5-methylpyrimidin-2-yl)propane-2-sulfonamide]
- MI Rat Model dP/dtmax (%) ([2]; in vivo, heart failure (MI) rat model, acute administration for 30 min): 20%
- cardiac contractility as measured by dP/dtmax (derivative of left ventricular pressure) ([2]; male Lewis rats, heart failure by ligation of left descending coronary artery, ejection fraction <35%, dosed acutely for 30 min): increase in cardiac contractility
- EC50 [3]: 850 pM
- left ventricular dP/dtmax (load independent cardiac contractility) [4]: increases load independent cardiac contractility
- left ventricular dP/dtmin (load independent cardiac relaxation) [4]: increases load independent cardiac relaxation
- Isolated Heart Assay dP/dtmax (%) [5]: 15%
- Isolated Heart Assay dP/dtmin (%) [5]: 25%

Structure (SMILES): CCCCc1nc(Cl)c(CO)n1Cc1ccc(-c2ccccc2-c2nn[nH]n2)cc1 [losartan]
- positive cooperativity induced by APJ small molecule agonists in the presence of AngII [6]: relieved this cooperativity
